Test results as given in US20150141274A1, “Methods and Compositions for Activity Dependent Transcriptome Profiling” (The Rockefeller University, priority 2012, published 2015).
No end group written: not given here.

Columns and labels:
[1] = system: pS6 and c-fos; format: in vivo, mouse; conditions: intraperitoneal: cocaine 30 mg/kg 60 min, kainate 12.5 mg/kg 120 min, haloperidol 2 mg/kg 30 min, olanzapine 20 mg/kg 120 min, clozapine 10 mg/kg 45 min; ghrelin
Experimental: (§1) Wild-type male C57B6/J mice from Jackson laboratories were maintained on a 8 pm:8 am light-dark schedule and were 9-13 weeks old at the time of sacrifice. All dissections were performed between noon and 2 pm except as noted. For osmotic stimulation experiments, animals were given an intraperitoneal injection of 2M NaCl (350 μL), water was removed from the cage, and mice were sacrificed 120-140 min later. For fasting experiments, animals were transferred to a new cage without food at 5 pm and then sacrificed at 8 am the following morning. Control mice were fed ad libitum and sacrificed at the same time. For ghrelin experiments, animals were given an intraperitoneal injection of ghrelin (66 μg, Tocris), food was removed from the cage, and animals were dissected 70 min later. For scheduled feeding, animals were allowed access to food between noon and 3 pm each day, and then sacrificed between 1:45 and 2 pm after a minimum of 10 days on this schedule.

[2] = target: T1, K-opioid receptor (KOR) (Mus musculus, UniProt P33534); assay: Food intake and body weight after treatment with KOR antagonists during scheduled or ad libitum feeding; format: in vivo
T1 construct: An intraperitoneal injection of either a selective KOR antagonist (JDTic) or vehicle was administered to mice; from tissue; host or cells: whole animal (wild-type male C57B6/J mice), i.p. or intracerebroventricular dosing
T1 sequence (P33534 whole entry): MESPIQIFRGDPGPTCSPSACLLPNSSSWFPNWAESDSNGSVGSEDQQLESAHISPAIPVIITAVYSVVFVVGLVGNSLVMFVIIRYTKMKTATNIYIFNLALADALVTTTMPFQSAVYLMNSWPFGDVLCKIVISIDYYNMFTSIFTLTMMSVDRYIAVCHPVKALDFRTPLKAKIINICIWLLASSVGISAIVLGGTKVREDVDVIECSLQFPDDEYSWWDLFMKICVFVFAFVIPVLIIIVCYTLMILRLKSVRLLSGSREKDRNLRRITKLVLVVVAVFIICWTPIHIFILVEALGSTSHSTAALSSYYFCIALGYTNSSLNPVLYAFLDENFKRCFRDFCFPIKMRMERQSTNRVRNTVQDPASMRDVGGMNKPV
Experimental: as §1
JDTic was either delivered by intraperitoneal injection (10 mg/kg) or was reconstituted in PBS to a concentration of 1 mg/mL and 5 ul was delivered via Hamilton syringe into the lateral ventricle using coordinates: L/M 1.0 mm from Bregma, A/P −0.4 mm from Bregma and 2.5 mm beneath the cortex. Norbinaltorphimine was delivered at the same dose and coordinates as described above.

[3] = system: hypothalamus; conditions: 2 M NaCl 15 μL/g intraperitoneal, 2 hours; pS6 240/244 antibody without 3P peptide
Experimental: Magnetic beads were loaded by incubating 150 μL of Protein A Dynabeads (Invitrogen) with 4 μg of pS6 antibody in Buffer A (10 mM HEPES [pH 7.4], 150 mM KCl, 5 mM MgCl2, 1% NP40, 0.05% IgG-free BSA). Loading was allowed to proceed at 4° C. for a minimum of 1 day. Beads were washed three times with Buffer A immediately before use.
Mice were sacrificed by cervical dislocation. The hypothalamus was rapidly dissected in Buffer B on ice (1×HBSS, 4 mM NaHCO3, 2.5 mM HEPES [pH 7.4], 35 mM Glucose, 100 μg/mL cycloheximide). […] Samples were homogenized three times at 250 rpm and nine times at 750 rpm on a variable-speed homogenizer (Glas-Col) at 4° C. Homogenates were transferred to a microcentrifuge tube and clarified for 10 minutes at 4000 rpm at 4° C. The supernatant was then removed and transferred to a new tube on ice. […]
Immunoprecipitations were allowed to proceed for 30-60 min at 4° C. […] RNA quality was quantified using a NanoDrop spectrophotometer and the quality assessed using an Agilent 2100 bioanalyzer. […] For Taqman analysis, cDNA was prepared using the Sensiscript RT kit (Qiagen) and analyzed using an Applied Biosystems 7900HT system. […]
The ratio of the signal intensities for each gene in the IP (immunoprecipitation) and input was calculated for each experiment, these values were averaged across replicates, and all genes were sorted according to their fold-enrichment.

[4] = system: hypothalamus; assay: Phosphorylated ribosome profiling (Taqman array) of hypothalamus after salt challenge; format: in vivo, mouse; conditions: 2M NaCl 350 μL intraperitoneal, 120-140 min; 3P peptide
Experimental: (§2) Mice were sacrificed by cervical dislocation. […] Homogenates were transferred to a microcentrifuge tube and clarified at 2000×g for 10 min at 4° C. […] This solution was mixed and then clarified at 17000×g for 10 min at 4° C. The resulting high-speed supernatant was transferred to a new tube, and 20 μL of a 0.05 mM stock solution of 3P peptide was added. A 20 μL aliquot of this solution was removed, transferred to a new tube containing 350 μL buffer RLT (Qiagen), and stored at −80° C. for purification as input RNA. The remainder was used for immunoprecipitation.
(§3) Immunoprecipitations were allowed to proceed 10 min at 4° C. […] During the third wash the beads were transferred to a new tube and allowed to incubate at RT for 10 min. […] RNA assessed using an Agilent 2100 bioanalyzer.
as §1, with “For fasting experiments, animals were transferred to a new cage without food at 5 pm and then sacrificed at 8 am the following morning.” left out
(§4) Taqman probes were designed and ordered for quantification of each of the 225 genes described in Table 4. Probes were distributed to 96-well plates in duplicate, cDNA was prepared using the Quantitect RT kit (Qiagen), and reactions were run using the Taqman Gene Expression Master Mix (ABI) on an Applied Biosystems 7900HT system. For each experiment (stimulus or control), the abundance of each gene in the input RNA and in the pS6 immunoprecipitated RNA was measured in duplicate. The mean RNA abundance was determined, normalized to an rpL27 probe that was present in every plate, and the ratio (IP/Input) was calculated. The experiment was repeated multiple times for each stimulus or control, these values were averaged, and the differential enrichment was calculated (ratio of (IP/Input) stimulus over control). Note that the differential enrichment was calculated because the neuronal markers that become enriched or depleted specifically in response to the stimulus was of interest. Normalization to the control group accounts for the fact that each neural marker has a somewhat different enrichment at baseline, reflecting the fact that each cell-population has somewhat different level of basal pS6. Follow-up analysis focused in every case on the most highly enriched genes in the experiment, which were validated directly by histology.

[5] = system: pS6; assay: Hypothalamic immunostaining for pS6; format: in vivo, mouse
Experimental: as §1, with “For fasting experiments, animals were transferred to a new cage without food at 5 pm and then sacrificed at 8 am the following morning.” left out
Mice were sacrified at the indicated times by isoflurane anesthesia followed by transcardial perfusion with PBS and then 10% formalin. Brains were dissected, incubated in 10% formalin overnight at 4° C., and 40 μm sections were prepared on a vibratome. Free floating sections were blocked for 1 h at room temperature in buffer E (PBS, 0.1% Triton, 2% goat serum, 3% BSA), and then stained overnight at 4° C. with primary antibodies at the indicated concentrations. For pS6 244 staining, the pS6 240/244 polyclonal antibody (Cell Signaling, #2215) was combined with the 3P peptide (250 nM final concentration). […]
Images were acquired using an LSM510 laser scanning confocal microscope. pS6 was quantified in specific neuronal populations as follows. […] The surfaces corresponding to each labelled cell in the field (e.g. each POMC cell) were reconstructed using Imaris software (Bitplane), and the mean intensity in the pS6 channel within the volume bounded by the surface of each labelled cell was recorded. […] In cases where the absolute number of pS6 positive cells within an anatomic region was desired (e.g. Pdyn neurons in the DMH), the number of pS6 positive and negative cells was counted manually.

[6] = system: hypothalamus; assay: Phosphorylated ribosome profiling (Taqman array) of hypothalamus after ghrelin injection; format: in vivo, mouse; conditions: ghrelin 66 μg intraperitoneal, 70 min
Experimental: as §2, §3
Wild-type male C57B6/J mice from Jackson laboratories were maintained on a 8 pm:8 am light-dark schedule and were 9-13 weeks old at the time of sacrifice. All dissections were performed between noon and 2 pm except as noted. […]
as §4, with “Normalization to the control group accounts for the fact that each neural marker has a somewhat different enrichment at baseline, reflecting the fact that each cell-population has somewhat different level of basal pS6. Follow-up analysis focused in every case on the most highly enriched genes in the experiment, which were validated directly by histology.” left out

[7] = target: phosphorylated ribosomal protein S6 (mouse), in ribosomes of cell lysates (Mus musculus) (UniProt P62754); assay: immunoprecipitation of ribosomes from MEF lysates, recovered RNA quantified
[8] = target: phosphorylated ribosomal protein S6 (mouse), in ribosomes of cell lysates (Mus musculus) (UniProt P62754); assay: immunoprecipitation of ribosomes from MEF lysates, recovered RNA quantified by Bioanalyzer
[9] = ad libitum fed animals, intraperitoneal injection
[10] = scheduled feeding, intraperitoneal injection 10 mg/kg, single dose

## O=C(CCCN1CCC(O)(c2ccc(Cl)cc2)CC1)c1ccc(F)cc1 [haloperidol]
[1]
  co-localization of pS6 and c-fos in brain regions: induce co-localization of pS6 and c-fos

## C=C(C)[C@H]1CN[C@H](C(=O)O)[C@H]1CC(=O)O [kainate]
[1]
  co-localization of pS6 and c-fos in brain regions: induce co-localization of pS6 and c-fos

## Oc1ccc2c3c1O[C@H]1c4[nH]c5c(c4C[C@@]4(O)[C@@H](C2)N(CC2CC2)CC[C@]314)C[C@@]1(O)[C@H]2Cc3ccc(O)c4c3[C@@]1(CCN2CC1CC1)[C@H]5O4 [norbinaltorphimine]
[2]; scheduled feeding, intracerebroventricular injection
  increase in food intake: more than 50%

## [Cl-].[Na+] [salt, NaCl]
[3]
  enrichment of Avp in pS6 IPs from salt challenged animals relative to controls, by Taqman: 7.9 fold
[4]
  enrichment of Cxcl1 in pS6 immunoprecipitates, salt challenged relative to controls: 13 fold
  enrichment of Fezf2 in pS6 immunoprecipitates, salt challenged relative to controls: 5.5 fold
  enrichment of FosB in pS6 immunoprecipitates, salt challenged relative to controls: 38 fold
  enrichment of Nhlh2 in pS6 immunoprecipitates, salt challenged relative to controls: 7.3 fold
  enrichment of Sim1 in pS6 immunoprecipitates, salt challenged relative to controls: 4.0 fold
  enrichment of corticotropin releasing hormone (Crh) in pS6 immunoprecipitates, salt challenged relative to controls: 10 fold
  enrichment of galanin (Gal) in pS6 immunoprecipitates, salt challenged relative to controls: 4.6 fold
  enrichment of oxytocin (Oxt) in pS6 immunoprecipitates, salt challenged relative to controls: 14 fold
  enrichment of prodynorphin (Pdyn) in pS6 immunoprecipitates, salt challenged relative to controls: 3.4 fold
  enrichment of relaxin-1 (Rln1) in pS6 immunoprecipitates, salt challenged relative to controls: 6.1 fold
  enrichment of somatostatin (Sst) in pS6 immunoprecipitates, salt challenged relative to controls: 3.1 fold
  enrichment of urocortin-3 (Ucn3) in pS6 immunoprecipitates, salt challenged relative to controls: 5.3 fold
  enrichment of vasopressin (Avp) in pS6 immunoprecipitates, salt challenged relative to controls: 49 fold
[5]; salt challenge, 2M NaCl versus vehicle (PBS), pS6 244 staining
  pS6 staining in PVN, SON and median eminence of the hypothalamus: induced an increase in pS6

## JDTic
[2]; [9]
  body weight: no impact
  food intake: no impact
[2]; [10]
  body weight relative to the control group: more rapid regain
  food intake relative to the control group: increased more rapidly

## ghrelin (GSSFLSPEHQRVQQRKESKKPPAKLQPR; not fully specified (residue 3); ends and bridges not checked; UniProt Q9UBU3 24-51, looked up) [the hormone ghrelin (Tocris)]
[1]
  co-localization of pS6 and c-fos in brain regions: extensive co-localization of c-fos and pS6
[6]
  enrichment of AgRP in pS6 immunoprecipitates relative to controls: 27 fold
  enrichment of NPY in pS6 immunoprecipitates relative to controls: 21 fold
  enrichment of the ghrelin receptor in pS6 immunoprecipitates relative to controls: 7.1 fold
[5]; ghrelin IP injection, 1 h
  pS6 levels in the compact part of the DMH: did not increase
  pS6 staining in the Arc: induced strong pS6

## rabbit anti-pS6 240/244 polyclonal antibody (Cell Signaling #2215)
[7]
  fold more RNA associated with immunoprecipitate, wild-type MEFs against S6S5A cells: 100 fold
[8]
  fold more RNA isolated in immunoprecipitate, wild-type MEFs against S6^S5A controls: 100 fold
